In patent publication US20230016034A1, “ENHANCEMENT OF iPSC-DERIVED EFFECTOR IMMUNE CELL USING SMALL COMPOUNDS” (Fate Therapeutics, Inc., priority 2019, published 2023):

System: Nalm6-luciferase cells
Test: In vivo efficacy of dexamethasone-treated post-thaw CD19-CAR iT cells, systemic Nalm6-luciferase model
Design: species or system NSG female mice
Details: p>0.1
Source text: Tumor progression was monitored at days 7, 14 and 20 post tumor injection by bioluminescent imaging. CAR-iT cells treated with dexamethasone (FIG. 8B) were compared with control cells without dexamethasone treatment (FIG. 8A) in cultures for iv/iv in vivo efficacy.

SMILES: C[C@@H]1C[C@H]2[C@@H]3CCC4=CC(=O)C=C[C@]4(C)[C@@]3(F)[C@@H](O)C[C@]2(C)[C@@]1(O)C(=O)CO [dexamethasone]
- Days of survival: > 80 days
